Results: patent publication US20160002248A1, “GLS1 INHIBITORS FOR TREATING DISEASE” (Board of Regents, The University of Texas System, priority 2014, published 2016)
pEC50, pIC50: −log10 of the molar value.

Legend:
A549 cells = assay: Proliferation Assay (A549 cell viability, Cell Titer Fluor); type: cell-based; settings: Homo sapiens, 72 hours
Protocol: A549 cells were routinely maintained in RPMI 1640 media (Gibco catalog number 11875-093) supplemented with 10% dialyzed fetal bovine serum using a humidified incubator (37° C., 5% CO2 and ambient O2). In preparation for the viability assay, cells were inoculated into 384-well black CulturPlates (Perkin Elmer) at a density of 1000 cells/well in a volume of 40 uL. Following a 24-hour incubation at 37° C., 5% CO2 and ambient O2, cells were treated with compound (10 uL) in a final DMSO concentration of 0.5% (v/v). The microplates were then incubated for 72 hours (37° C., 5% CO2 and ambient O2). Cell Titer Fluor (Promega) was subsequently added (10 uL of 6× reagent) and mixed for 15 minutes at room temperature. The plates were then incubated for 30 minutes (37° C., 5% CO2 and ambient O2) and fluorescence was subsequently read on the Perkin Elmer Envision plate reader. EC50 values were calculated using a four-parameter logistic curve fit.

[1] = target: T1, purified recombinant human GAC (GLS1) (Homo sapiens, UniProt O94925); assay: GLS1 Enzymatic Activity Assay (dual-coupled enzymatic assay); type: biochemical
T1 sequence (O94925 55-598 isoform O94925-3 limits assumed): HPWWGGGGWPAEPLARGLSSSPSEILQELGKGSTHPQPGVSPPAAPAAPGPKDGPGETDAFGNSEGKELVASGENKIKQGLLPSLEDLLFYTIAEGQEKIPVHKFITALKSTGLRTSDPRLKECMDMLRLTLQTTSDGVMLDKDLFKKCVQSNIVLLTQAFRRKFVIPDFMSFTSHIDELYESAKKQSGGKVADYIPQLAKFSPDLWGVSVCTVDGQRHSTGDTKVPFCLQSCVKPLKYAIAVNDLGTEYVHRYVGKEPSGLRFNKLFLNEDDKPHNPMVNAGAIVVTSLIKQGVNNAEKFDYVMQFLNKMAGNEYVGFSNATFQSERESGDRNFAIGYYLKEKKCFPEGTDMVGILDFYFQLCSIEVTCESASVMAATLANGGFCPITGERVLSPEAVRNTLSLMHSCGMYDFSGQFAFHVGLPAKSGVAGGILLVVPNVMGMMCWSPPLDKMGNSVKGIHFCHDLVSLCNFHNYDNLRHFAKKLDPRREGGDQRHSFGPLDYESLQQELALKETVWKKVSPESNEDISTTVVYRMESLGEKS
Protocol: GLS1 Enzymatic Activity Assay
The inhibition of purified recombinant human GAC by varying concentrations of inhibitors is assessed via a dual-coupled enzymatic assay. The glutamate produced by the glutaminase reaction is used by glutamate oxidase to produce α-ketoglutarate, ammonia, and hydrogen peroxide, with this hydrogen peroxide subsequently being used by horseradish peroxidase to produce resorufin in the presence of Amplex UltraRed. The assay buffer consisted of 50 mM Hepes (pH 7.4), 0.25 mM EDTA and 0.1 mM Triton X-100. GAC was incubated with potassium phosphate (10 minutes at room temperature) prior to incubation with inhibitor (10 minutes at room temperature). The final reaction conditions were as follows: 2 nM GAC, 50 mM potassium phosphate, 100 mU/mL glutamate oxidase (Sigma), 1 mM glutamine (Sigma), 100 mU/mL horseradish peroxidase (Sigma), 75 μM Amplex UltraRed (Life Technologies), and 1% (v/v) DMSO. The production of resorufin was monitored on a Perkin Elmer Envision plate reader (excitation 530 nm, emission 590 nm) either in a kinetics or endpoint mode (at 20 minutes). IC50 values were calculated using a four-parameter logistic curve fit.

SMILES | pEC50 (A549 cells) | pIC50 [1]
O=C(NCc1ccccn1)c1cn(CCCCc2cc3c(-c4ccc(C(F)(F)F)cc4)c(C4CC4)[nH]c3nn2)nn1 [Example 123, 1-(4-{6-cyclopropyl-5-[4-(trifluoromethyl)phenyl]-7H-pyrrolo[2,3-c]pyridazin-3-yl}butyl)-N-(pyridin-2-ylmethyl)-1H-1,2,3-triazole-4-carboxamide] | 6.30 to 7.00 | > 7.00
O=C(NCc1ccccn1)c1cn(CCCCc2cc3c(-c4ccc5c(c4)OCO5)c(C4CC4)[nH]c3nn2)nn1 [Example 145, 1-{4-[5-(2H-1,3-benzodioxol-5-yl)-6-cyclopropyl-7H-pyrrolo[2,3-c]pyridazin-3-yl]butyl}-N-(pyridin-2-ylmethyl)-1H-1,2,3-triazole-4-carboxamide] | 6.30 to 7.00 | > 7.00
O=C(NCc1ccccn1)c1cn(CCCCc2cc3c(-c4ccccc4)c[nH]c3nn2)nn1 [Example 20, 1-(4-(5-phenyl-7H-pyrrolo[2,3-c]pyridazin-3-yl)butyl)-N-(pyridin-2-ylmethyl)-1H-1,2,3-triazole-4-carboxamide] | < 5.30 | 5.30 to 6.30
Cc1ccc(CNC(=O)c2cn(CCCCc3cc4c(Cl)c(C5CC5)[nH]c4nn3)nn2)cn1 [Example 19, 1-(4-(5-Chloro-6-cyclopropyl-7H-pyrrolo[2,3-c]pyridazin-3-yl)butyl)-N-((6-methylpyridin-3-yl)methyl)-1H-1,2,3-triazole-4-carboxamide 2,2,2-trifluoroacetate] | 5.30 to 6.30 | > 7.00
O=C(NCc1ccccn1)c1cn(CCCCc2cc3c(-c4cccc(Cl)c4)c(C4CC4)[nH]c3nn2)nn1 [Example 116, 1-{4-[5-(3-chlorophenyl)-6-cyclopropyl-7H-pyrrolo[2,3-c]pyridazin-3-yl]butyl}-N-(pyridin-2-ylmethyl)-1H-1,2,3-triazole-4-carboxamide] | 5.30 to 6.30 | > 7.00
CC(C)c1cc2cc(CCCCn3cc(C(=O)NCc4ccccn4)nn3)nnc2[nH]1 [Example 12, 1-(4-(6-isopropyl-7H-pyrrolo[2,3-c]pyridazin-3-yl)butyl)-N-(pyridin-2-ylmethyl)-1H-1,2,3-triazole-4-carboxamide] | 5.30 to 6.30 | 6.30 to 7.00
Cc1ccc(CNC(=O)c2cn(CCCCc3cc4c(-c5cccc(OC(F)(F)F)c5)c(C5CC5)[nH]c4nn3)nn2)cn1 [Example 170, 1-(4-{6-cyclopropyl-5-[3-(trifluoromethoxy)phenyl]-7H-pyrrolo[2,3-c]pyridazin-3-yl}butyl)-N-[(6-methylpyridin-3-yl)methyl]-1H-1,2,3-triazole-4-carboxamide] | 6.30 to 7.00 | > 7.00
Cc1ccc(CNC(=O)c2cn(CCCCc3cc4cc(C5CC5)[nH]c4nn3)nn2)cn1 [Example 35, 1-(4-{6-cyclopropyl-7H-pyrrolo[2,3-c]pyridazin-3-yl}butyl)-N-[(6-methylpyridin-3-yl)methyl]-1H-1,2,3-triazole-4-carboxamide] | 6.30 to 7.00 | > 7.00
O=C(NCc1cc(C(F)(F)F)ccn1)c1cn(CCCCc2cc3c(C4CC4)c(C4CCCC4)[nH]c3nn2)nn1 [Example 216, 1-(4-{6-cyclopentyl-5-cyclopropyl-7H-pyrrolo[2,3-c]pyridazin-3-yl}butyl)-N-{[4-(trifluoromethyl)pyridin-2-yl]methyl}-1H-1,2,3-triazole-4-carboxamide] | 6.30 to 7.00 | > 7.00
O=C(NCc1ccccn1)c1cn(CCCCc2cc3c(-c4ccncc4)c(C4CC4)[nH]c3nn2)nn1 [Example 113, 1-{4-[6-cyclopropyl-5-(pyridin-4-yl)-7H-pyrrolo[2,3-c]pyridazin-3-yl]butyl}-N-(pyridin-2-ylmethyl)-1H-1,2,3-triazole-4-carboxamide] | 5.30 to 6.30 | > 7.00
O=C(NCc1ccccc1)c1cn(CCCCc2cc3c(I)c[nH]c3nn2)nn1 [Example 15, N-benzyl-1-(4-(5-iodo-7H-pyrrolo[2,3-c]pyridazin-3-yl)butyl)-1H-1,2,3-triazole-4-carboxamide] | 5.30 to 6.30 | 6.30 to 7.00
O=C(NCc1ccc(CF)nc1)c1cn(CCCCc2cc3c(-c4ccc(F)cc4F)c(C4CC4)[nH]c3nn2)nn1 [Example 222, 1-{4-[6-cyclopropyl-5-(2,4-difluorophenyl)-7H-pyrrolo[2,3-c]pyridazin-3-yl]butyl}-N-{[6-(fluoromethyl)pyridin-3-yl]methyl}-1H-1,2,3-triazole-4-carboxamide] | 6.30 to 7.00 | > 7.00
CC(C)OC(=O)N1CC(c2cc3cc(CCCCn4cc(C(=O)NCc5cc(C(F)(F)F)ccn5)nn4)nnc3[nH]2)C1 [Example 200, propan-2-yl 3-(3-{4-[4-({[4-(trifluoromethyl)pyridin-2-yl]methyl}carbamoyl)-1H-1,2,3-triazol-1-yl]butyl}-7H-pyrrolo[2,3-c]pyridazin-6-yl)azetidine-1-carboxylate] | 6.30 to 7.00 | > 7.00
Nc1ccn(CCCCc2cc3cc(C4CC4)[nH]c3nn2)c(=O)c1 [Example 31, 4-amino-1-(4-{6-cyclopropyl-7H-pyrrolo[2,3-c]pyridazin-3-yl}butyl)-1,2-dihydropyridin-2-one] | – | 5.30 to 6.30
O=C(NCc1ccccn1)c1cn(CCCCc2cc3cc[nH]c3nn2)nn1 [Example 25, 1-(4-(7H-pyrrolo[2,3-c]pyridazin-3-yl)butyl)-N-(pyridin-2-ylmethyl)-1H-1,2,3-triazole-4-carboxamide] | – | 5.30 to 6.30
O=C(Cc1ccccc1)Nc1nnc(CCCCCc2cc3cc(Cc4ccccc4)[nH]c3nn2)s1 [Example 7, N-(5-(5-(6-benzyl-7H-pyrrolo[2,3-c]pyridazin-3-yl)pentyl)-1,3,4-thiadiazol-2-yl)-2-phenylacetamide] | – | 5.30 to 6.30
O=C(NCc1ccccn1)c1cn(CCCCc2cc3c4c([nH]c3nn2)CCC4)nn1 [Example 142, N-(pyridin-2-ylmethyl)-1-(4-(5,6,7,8-tetrahydrocyclopenta[4,5]pyrrolo[2,3-c]pyridazin-3-yl)butyl)-1H-1,2,3-triazole-4-carboxamide] | – | 5.30 to 6.30
Nc1nnc(CCCCc2cnc3[nH]c(Cc4ccccc4)nc3c2)s1 [Example 22, 5-(4-(2-benzyl-3H-imidazo[4,5-b]pyridin-6-yl)butyl)-1,3,4-thiadiazol-2-amine] | – | 5.30 to 6.30
O=C(Cc1cccnc1)Nc1nnc(CCCCc2cc3cc(Cc4ccccc4)[nH]c3nn2)s1 [Example 57, N-[5-(4-{6-benzyl-7H-pyrrolo[2,3-c]pyridazin-3-yl}butyl)-1,3,4-thiadiazol-2-yl]-2-(pyridin-3-yl)acetamide] | – | > 7.00
O=C(NCc1ccccc1)c1cn(CCCCc2cc3cc[nH]c3nn2)nn1 [Example 11, 1-(4-(7H-pyrrolo[2,3-c]pyridazin-3-yl)butyl)-N-benzyl-1H-1,2,3-triazole-4-carboxamide] | – | 5.30 to 6.30
O=C(NCc1cccc(OC(F)(F)F)c1)c1cn(CCCCc2cc3c(C4=CCNCC4)c(C4CC4)[nH]c3nn2)nn1 [Example 199, 1-{4-[6-cyclopropyl-5-(1,2,3,6-tetrahydropyridin-4-yl)-7H-pyrrolo[2,3-c]pyridazin-3-yl]butyl}-N-{[3-(trifluoromethoxy)phenyl]methyl}-1H-1,2,3-triazole-4-carboxamide] | – | 6.30 to 7.00
O=C(Cc1ccccc1)Nc1nnc(CCCCc2cnc3[nH]c(Cc4ccccc4)nc3c2)s1 [Example 23, N-(5-(4-(2-benzyl-3H-imidazo[4,5-b]pyridin-6-yl)butyl)-1,3,4-thiadiazol-2-yl)-2-phenylacetamide] | – | 5.30 to 6.30
CC(C)(O)CNC(=O)c1nnc(CCCCc2cc3cc(Cc4ccccc4)[nH]c3nn2)s1 [Example 71, 5-(4-{6-benzyl-7H-pyrrolo[2,3-c]pyridazin-3-yl}butyl)-N-(2-hydroxy-2-methylpropyl)-1,3,4-thiadiazole-2-carboxamide] | – | 5.30 to 6.30
Nc1nnc(CCCCc2cc3cc[nH]c3nn2)s1 [Example 1, 5-(4-(7H-pyrrolo[2,3-c]pyridazin-3-yl)butyl)-1,3,4-thiadiazol-2-amine] | – | 5.30 to 6.30
